Results published in doi:10.1101/2025.10.20.683491v1 (biorxiv, 2025).

Biological target: hERG channel (Homo sapiens, UniProt Q12809, species not given)
Assay: hERG channel inhibition assay
Assay type: cell-based

hERG channel, sequence (Q12809 whole entry): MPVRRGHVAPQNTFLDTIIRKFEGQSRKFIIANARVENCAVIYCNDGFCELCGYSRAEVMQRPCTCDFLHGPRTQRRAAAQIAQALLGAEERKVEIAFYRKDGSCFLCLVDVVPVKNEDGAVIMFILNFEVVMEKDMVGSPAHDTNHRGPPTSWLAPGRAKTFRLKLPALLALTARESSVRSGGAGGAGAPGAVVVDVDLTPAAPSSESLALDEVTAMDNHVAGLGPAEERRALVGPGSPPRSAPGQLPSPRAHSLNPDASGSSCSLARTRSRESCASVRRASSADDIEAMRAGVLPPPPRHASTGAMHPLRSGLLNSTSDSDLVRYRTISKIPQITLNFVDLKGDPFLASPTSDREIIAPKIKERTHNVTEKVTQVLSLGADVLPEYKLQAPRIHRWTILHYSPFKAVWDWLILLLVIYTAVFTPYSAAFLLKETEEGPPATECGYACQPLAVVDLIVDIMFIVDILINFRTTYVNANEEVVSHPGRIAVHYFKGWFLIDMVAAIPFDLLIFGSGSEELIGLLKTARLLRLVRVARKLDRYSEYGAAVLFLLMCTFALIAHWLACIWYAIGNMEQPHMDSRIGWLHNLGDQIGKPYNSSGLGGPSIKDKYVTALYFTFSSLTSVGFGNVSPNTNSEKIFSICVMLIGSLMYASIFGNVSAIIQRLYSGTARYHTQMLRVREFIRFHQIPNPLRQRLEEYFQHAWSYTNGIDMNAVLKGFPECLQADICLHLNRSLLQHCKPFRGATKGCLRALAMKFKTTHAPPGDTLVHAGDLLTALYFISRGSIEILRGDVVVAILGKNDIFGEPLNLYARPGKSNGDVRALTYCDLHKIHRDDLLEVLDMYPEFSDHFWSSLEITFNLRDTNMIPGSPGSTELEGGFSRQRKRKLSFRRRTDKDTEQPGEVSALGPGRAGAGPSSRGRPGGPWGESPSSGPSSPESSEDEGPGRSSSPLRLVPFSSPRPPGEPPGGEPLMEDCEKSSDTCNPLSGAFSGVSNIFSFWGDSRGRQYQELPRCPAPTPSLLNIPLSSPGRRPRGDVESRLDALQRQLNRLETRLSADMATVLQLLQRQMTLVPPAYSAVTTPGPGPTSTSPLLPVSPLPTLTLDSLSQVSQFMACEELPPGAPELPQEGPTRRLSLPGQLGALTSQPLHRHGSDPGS

`CNC(=O)C[C@@H](NC(=O)C[C@H](Cc1c[nH]c2ccccc12)NC(=O)[C@@H]1CCCC[C@H]1NCc1cnc(-c2sc(C)nc2C)o1)c1ccccc1` [DEL-C1] gave an IC50 of over 100 µM.
